These results are taken from patent US20070254827A1, “Alpha-aminobenzyl-alpha,alpha,-diphosphoric acid selective chelation of beryllium” (priority 2006, published 2007).

For data set [1] the following is noted: in vivo; cited from earlier work.
Data set [2] in a line: Initial mouse tolerability experiment with beryllium and chelator. In kind it is in vivo, mice. To be noted: beryllium and chelator administration, 48-hour experiment. The procedure: LLNL-IBC#2004-029. Two sets of animal experiments were performed.
A short description of data set [3]: Site-300 beryllium oxide debris particle chelation (ICP-MS of filtrates). Type of data set: physicochemical. The following applies: pH 7, equilibrated 3 days. The procedure:
The aims of this investigation were not limited to the study of beryllium in biological fluids and systems. A good chelator in the body is likely a good chelator in the environment. […] Particles were obtained from the Contained Firing Facility (CFF) at LLNL Site 300. Approximately 500 mg of beryllium oxide debris was weighed in a tared polyethylene vials and varying concentrations of APMDP chelator (pH adjusted to pH 7) were added to each vial. The vials were left to stand for 3 days, with manual shaking performed for 2 minutes each, twice a day. Samples were then filtered through a 0.2 um membrane and filtrates were analyzed by ICP-MS.

For data set [4] the following is noted: cited from earlier work.

With `NCc1ccccc1` [Benzylamine], the LD-50 in data set [1] was 128 mg/kg.
For the molecule `O=S(=O)(O)c1cc(O)c(O)c(S(=O)(=O)O)c1` [tiron], in data set [2], the “adverse effect on mice” value is “did not adversely affect the mice”.
As to `NC(c1ccccc1)(P(=O)(O)O)P(=O)(O)O` [APMDP, α-aminobenzyl-α,α,-diphosphoric acid], the “dissolution of insoluble BeO fines” value in data set [3] is on record as “can be dissolved”. The “adverse effect on mice” value in data set [2] was “did not adversely affect the mice”.
With `O=P(O)(O)c1ccccc1` [phenylphosphonic acid], the water solubility result in data set [4] was “water soluble”. The toxic at in data set [1] was 110 mg/kg.
As for `CC(N)c1ccccc1` (centres unmarked) [a-methylbenzylamine], the LD-50 in data set [1] was 940 mg/kg.
Regarding `CC(c1ccccc1)N(C)C` (centres unmarked) [N,N-dimethyl-a-methylbenzylamine], in data set [1], the LD-50 is 420 mg/kg.
